Test systems include 786-0; HCC 2998; HCT-15; HOP-62; HOP-92; Hs-578T; MCF7; MDA-MB-435; MDA-N; MOLT-4; NCI-H226; OVCAR-4; OVCAR-5; SF-295; SK-OV-3; SN12C; T47D; U-251; UACC-257; UO-31.
Common to all, as to assay: NCI-60 cell line screen, 48 h

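Tested at 5 concentrations; 48 h exposure; 96-well plates; endpoints linearly interpolated, else capped at highest concentration. GI50 = concentration required for 50% inhibition of growth.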 Active and inactive are the calls of the source. Rule as the data show it: active = GI50 up to about 1.1 µM and inactive = higher.

As to `C[C@H](CC[C@@H](O)C(C)(C)O)[C@H]1CC[C@@]2(C)[C@@H]3CC=C4[C@@H](CC[C@H](OC5OC(CO)C(O)C(O)C5O)C4(C)C)[C@]3(C)C(=O)C[C@]12C` (stereo not given in full), the GI50 is 26.6 µM (inactive) in the assay with 786-0; 89.7 µM (inactive) in the assay on HCC 2998; 67.9 µM in the assay with HCT-15; 36.8 µM (inactive) with HOP-62; > 100 µM (inactive) with HOP-92; 37.3 µM (inactive) with Hs-578T. Further, the GI50 in the assay on MCF7 is 51.5 µM (inactive); in the assay on MDA-MB-435, 42.6 µM (inactive); in the assay with MDA-N, 32.7 µM (inactive); in the assay with MOLT-4 it was 21.1 µM (inactive); with NCI-H226, > 100 µM (inactive); in the assay with OVCAR-4, 45.3 µM (inactive). Also, the GI50 in the assay with OVCAR-5 is > 100 µM (inactive); in the assay on SF-295 it was 90.4 µM (inactive); with SK-OV-3, 31 µM (inactive); with SN12C, 69 µM (inactive); in the assay on T47D, 97.9 µM (inactive); in the assay with U-251, 33.6 µM (inactive). Besides, the GI50 is 33.7 µM (inactive) in the assay on UACC-257 and 28.9 µM (inactive) in the assay with UO-31.

In the case of `COC(=O)C1Cc2c(C)cccc2C1=O` (stereo not given), the GI50 is > 100 µM (inactive) in the assay on 786-0; > 100 µM (inactive) in the assay with HCC 2998; greater than 100 µM in the assay on HCT-15; > 100 µM (inactive) in the assay on HOP-62; > 100 µM (inactive) in the assay on HOP-92; > 100 µM (inactive) in the assay on Hs-578T. The GI50 in the assay with MCF7, with MDA-MB-435, in the assay with MDA-N, in the assay with MOLT-4, in the assay on NCI-H226 and in the assay with OVCAR-4 was > 100 µM (inactive) each time. In addition, the GI50 in the assay on OVCAR-5, in the assay with SF-295, with SK-OV-3, in the assay with SN12C, in the assay with T47D and in the assay with U-251 was > 100 µM (inactive) throughout. Moreover, the GI50 with UACC-257 and with UO-31 was > 100 µM (inactive) in each case.

With `O=c1ssc(Cl)c1Cl`, the GI50 is > 4.7 µM (inactive) in the assay on 786-0; > 10 µM (inactive) with HCC 2998; greater than 10 µM in the assay on HCT-15; > 10 µM (inactive) with HOP-62; > 10 µM (inactive) in the assay on HOP-92; > 10 µM (inactive) in the assay with Hs-578T. In addition, the GI50 in the assay with MCF7 was > 7.78 µM (inactive); with MDA-MB-435 it was > 10 µM (inactive); in the assay on MDA-N it was > 10 µM (inactive); in the assay with MOLT-4 it was 2.39 µM (inactive); in the assay on NCI-H226, > 10 µM (inactive); in the assay with OVCAR-4, > 5.6 µM (inactive). Besides, the GI50 in the assay on OVCAR-5, in the assay on SF-295, in the assay on SK-OV-3, in the assay on SN12C, in the assay with T47D and in the assay with U-251 was > 10 µM (inactive) in each case. For the same compound, the GI50 was > 7.19 µM (inactive) with UACC-257 and > 4.93 µM (inactive) in the assay with UO-31.

Regarding `COc1cccc(CCNc2c(C#N)c3n(c4ccccc4[n+]3C)c3ncccc23)c1`, the GI50 in the assay on 786-0 is 1.76 µM (inactive); with HCC 2998, 1.93 µM (inactive); in the assay on HCT-15 it was 1.75 µM; in the assay with HOP-62 it was 17.5 µM (inactive); in the assay on HOP-92, 27.7 µM (inactive); in the assay on Hs-578T, 7.31 µM (inactive). In addition, the GI50 in the assay on MCF7 was 1.52 µM (inactive); with MDA-MB-435 it was 2.52 µM (inactive); in the assay on MDA-N, 5.2 µM (inactive); in the assay on MOLT-4, 2.55 µM (inactive); in the assay on NCI-H226 it was 20.9 µM (inactive); in the assay on OVCAR-4 it was 2.04 µM (inactive). Besides, the GI50 in the assay with OVCAR-5 is 15.3 µM (inactive); with SF-295 it was 1.69 µM (inactive); in the assay on SK-OV-3, 20.3 µM (inactive); in the assay with SN12C, 15.9 µM (inactive); in the assay with T47D, 6.59 µM (inactive); in the assay with U-251, 2.37 µM (inactive). Besides, the GI50 with UACC-257 was 21.9 µM (inactive); in the assay on UO-31, 4.53 µM (inactive).

For `Nc1ncnc2c1ncn2[C@H]1CC[C@@H](NO)C1`, the GI50 in the assay on 786-0 is > 100 µM (inactive); in the assay with HCC 2998 it was > 100 µM (inactive); with HCT-15, greater than 100 µM; in the assay on HOP-62, > 100 µM (inactive); in the assay on HOP-92, > 100 µM (inactive); in the assay on Hs-578T it was > 100 µM (inactive). The GI50 in the assay on MCF7, with MDA-MB-435, in the assay with MDA-N, in the assay with MOLT-4, in the assay on NCI-H226 and in the assay with OVCAR-4 was > 100 µM (inactive) in each case. Further, the GI50 in the assay on OVCAR-5, in the assay on SF-295, in the assay with SK-OV-3, in the assay with SN12C, in the assay with T47D and with U-251 was > 100 µM (inactive) each time. In addition, the GI50 in the assay on UACC-257 and with UO-31 was > 100 µM (inactive) in each case.

For the compound `O=c1[nH]nc(Cc2ccc(Cl)cc2)n1/N=C/c1ccc([N+](=O)[O-])o1`, the GI50 in the assay with 786-0 is 2.23 µM (inactive); in the assay with HCC 2998, 2.13 µM (inactive); in the assay with HCT-15 it was 2.21 µM; in the assay with HOP-62, 2.77 µM (inactive); in the assay on HOP-92 it was 4.57 µM (inactive); in the assay on Hs-578T, 2.25 µM (inactive). In addition, the GI50 in the assay with MCF7 is 1.75 µM (inactive); in the assay on MDA-MB-435 it was 2.4 µM (inactive); in the assay on MDA-N it was 1.65 µM (inactive); with MOLT-4, 1.55 µM (inactive); in the assay with NCI-H226, 9.18 µM (inactive); with OVCAR-4, 2.73 µM (inactive). Further, the GI50 in the assay on OVCAR-5 is 6.85 µM (inactive); in the assay on SF-295 it was 2.77 µM (inactive); in the assay with SK-OV-3, 5.22 µM (inactive); in the assay on SN12C, 3.78 µM (inactive); with T47D it was 21.4 µM (inactive); in the assay with U-251, 4.12 µM (inactive). Also, the results for the GI50 in the assay on UACC-257 and in the assay on UO-31 were 2.77 µM (inactive) and 2.16 µM (inactive), respectively.

Take `N=C(N)NCCCCCCC(=O)NC(O)C(=O)NCCCCNCCCN` (stereo not given): the GI50 was 3070 µM (inactive) in the assay with 786-0; > 562 µM (inactive) in the assay with HCC 2998; 656 µM in the assay on HCT-15; 726 µM (inactive) with HOP-62; 360 µM (inactive) in the assay with HOP-92; 748 µM (inactive) in the assay with Hs-578T. For the same compound, the GI50 in the assay on MCF7 was 745 µM (inactive); in the assay on MDA-MB-435, > 750 µM (inactive); in the assay with MDA-N it was 2360 µM (inactive); in the assay on MOLT-4, 659 µM (inactive); with NCI-H226 it was 687 µM (inactive); in the assay with OVCAR-4, 550 µM (inactive). Further, the GI50 with OVCAR-5 is > 750 µM (inactive); in the assay on SF-295 it was 553 µM (inactive); in the assay on SK-OV-3 it was > 750 µM (inactive); in the assay with SN12C it was > 750 µM (inactive); with T47D, > 750 µM (inactive); in the assay on U-251, 611 µM (inactive). For the same compound, the GI50 is > 750 µM (inactive) with UACC-257 and 590 µM (inactive) with UO-31.

Regarding `O=C1CCCc2cc3c(cc21)CC1(C3)Cc2ccc3c(c2C1)C(=O)CCC3` (stereo not given), the GI50 in the assay on 786-0 was 30.7 µM (inactive); with HCC 2998, 71.8 µM (inactive); in the assay on HCT-15, 45.2 µM; in the assay on HOP-62 it was 67.9 µM (inactive); in the assay with HOP-92 it was 21.3 µM (inactive); in the assay with Hs-578T, 65.6 µM (inactive). The GI50 in the assay with MCF7 was 12.2 µM (inactive); with MDA-MB-435 it was 4.91 µM (inactive); in the assay with MDA-N it was 5.18 µM (inactive); in the assay on MOLT-4 it was 4.12 µM (inactive); with NCI-H226, 6.38 µM (inactive); in the assay on OVCAR-4 it was 13.9 µM (inactive). In addition, the GI50 is > 100 µM (inactive) in the assay with OVCAR-5; 18.5 µM (inactive) in the assay with SF-295; > 100 µM (inactive) with SK-OV-3; 23.6 µM (inactive) in the assay with SN12C; 24.1 µM (inactive) with T47D; 39.2 µM (inactive) in the assay with U-251. The GI50 was 5.24 µM (inactive) in the assay with UACC-257 and 32.4 µM (inactive) in the assay on UO-31.

Consider `CC12CC(Br)(Br)C(=O)C3C1CCCC32`, for which the GI50 is 4.07 µM (inactive) with 786-0; 6.89 µM (inactive) with HCC 2998; 3.61 µM in the assay on HCT-15; 17.5 µM (inactive) with HOP-62; 2.17 µM (inactive) in the assay with HOP-92; 12.6 µM (inactive) in the assay with Hs-578T. Besides, the GI50 was 4.33 µM (inactive) in the assay on MCF7; 3.03 µM (inactive) in the assay on MDA-MB-435; 2.99 µM (inactive) in the assay on MDA-N; 1.67 µM (inactive) in the assay on MOLT-4; 11.3 µM (inactive) in the assay on NCI-H226; 4.48 µM (inactive) in the assay on OVCAR-4. Besides, the GI50 is 17.8 µM (inactive) in the assay on OVCAR-5; 15.9 µM (inactive) in the assay on SF-295; 15.3 µM (inactive) in the assay on SK-OV-3; 4.57 µM (inactive) with SN12C; 2.38 µM (inactive) with T47D; 11.5 µM (inactive) in the assay on U-251. The GI50 with UACC-257 was 8.65 µM (inactive); in the assay with UO-31, 6.05 µM (inactive).

`COc1ccc(N2C(=O)CC(c3c[nH]c4ncccc34)C2=O)cc1` (stereo not given): the GI50 was 22.3 µM (inactive) with 786-0; > 100 µM (inactive) with HCC 2998; 24.8 µM in the assay with HCT-15; > 100 µM (inactive) in the assay on HOP-62; 19.7 µM (inactive) in the assay with HOP-92; > 100 µM (inactive) with Hs-578T. For the same compound, the GI50 with MCF7 was 27.5 µM (inactive); in the assay on MDA-MB-435, 14.4 µM (inactive); with MDA-N, 14.2 µM (inactive); in the assay on MOLT-4, > 20.7 µM (inactive); in the assay on NCI-H226, > 100 µM (inactive); in the assay on OVCAR-4, 22.8 µM (inactive). For the same compound, the GI50 with OVCAR-5 was 63.2 µM (inactive); in the assay with SF-295 it was > 100 µM (inactive); in the assay with SK-OV-3, > 100 µM (inactive); in the assay with SN12C, 18.5 µM (inactive); with T47D it was 24.1 µM (inactive); with U-251, > 100 µM (inactive). Moreover, the results for the GI50 with UACC-257 and in the assay on UO-31 were 19.3 µM (inactive) and 32.4 µM (inactive), respectively.

(Values after ChEMBL document CHEMBL1201862, “PubChem BioAssay data set” (2004).)
